# Laboratory results published in patent US7795314B2, “Protective role of semapimod in necrotizing enterocolitis” (Cytokine PharmaSciences, Inc., priority 2005, dated 2010).
# What was measured:
# HMGB1 = assay: Western blotting of ileal mucosal scrapings, NEC model; assay type: in vivo, rat; conditions: FFH+semapimod vs FFH, day 4, 30 kDa band, FIG. 3a
# Procedure: (§1) All the experiments were carried out according to an animal protocol approved by the Animal Research and Care Committee (ARCC) of the Children's Hospital of Pittsburgh. Pregnant time-dated Sprague-Dawley rats (Charles River Labs, Wilmington, Mass.) were induced at term using a subcutaneous injection (1 to 2 U per animal) of Pitocin® (Monarch Pharmaceuticals, Bristol, Tenn.). Immediately after birth, the neonates were weighed and randomized into one of the different treatment groups. Group 1 consisted of neonatal rats left with their mother, and thus were breast-fed. […]
# (§2) Newborn rats were sacrificed as indicated and segments of the terminal ileum were isolated. […] Protein concentration in the supernatant was determined using the bicinchoninic acid (BCA) Protein Assay kit form Sigma (St. Louis, Mo.) with bovine serum albumin as standard. […]
# RAGE = assay: as above; assay type: in vivo, rat; conditions: FFH+semapimod vs FFH, day 4, 45 and 25 kDa bands, FIG. 3c
# Procedure: as §1, §2
# Bad = assay: as above; assay type: in vivo, rat; conditions: FFH pups, 0.75 mg/kg IP daily, day 4, FIG. 4a
# Procedure: as §1, §2
# Bax = assay: as above; assay type: in vivo, rat; conditions: FFH pups, 0.75 mg/kg IP daily, day 4, FIG. 4b
# Procedure: as §1, §2
# p38 MAP kinase = assay: Activation (phosphorylation) of p38 MAP kinase in IEC-6 cells, Western blotting pp38/p38; assay type: cell-based, rat
# Procedure: The rat intestinal crypt cell line IEC-6 was purchased from the American Type Culture Collection (ATCC, Manassas, Va.). Cells were grown in tissue culture medium consisting of Dulbeco's modified Eagle's medium with 4.5 gm/L glucose (Bio-Whittaker, Walkersville, Md.) supplemented with 5% fetal bovine serum (Bio-Whittaker), 0.02 mM glutamine (GIBCO; Grand Island, N.Y.), 0.1 U/ml insulin, 100 U/ml penicillin, and 100 μg/ml streptomycin (GIBCO) at 37° C. and 10% CO2. Cells were pretreated with semapimod (0.1-10 μM solutions prepared in 5% dextrose) followed by short exposure to LPS (5 μg/ml), peroxynitrite (ONOO^−, 50 μM) or cytomix (a combination of tumor necrosis factor (TNFα, 10 ng/ml), interleukin-1β (IL-β, 1 ng/ml), and interferon-gamma (IFNγ, 1000 U/ml) for 10 min. Preparation of the ONOO^− solution and cell treatment was as previously reported (36). The lysates were collected for Western blotting analysis as follows: proteins were extracted for 10 min at 4° C. witih lysis buffer (20 mM Tris pH 8.0, 150 mM NaCl, 1% NP-40, 0.5% sodium deoxycholate, 0.1% sodium dodecylsulfate) supplemented with protease and phosphatase inhibitors: 1 mM PMSF, 1 mM benzamidine, 50 μg/ml aprotinin, 0.5 mM Na3VO4, 20 mM NaF, and 0.5 mM phenylarsine oxide. Aliquots containing 50 μg total protein were resolved by SDS-polyacrylamide gel electrophoresis. Gels were electroblotted onto nitrocellulose membranes. Following 1 hr incubation in blocking solution (phosphate-buffered saline, 0.1% Tween-20, 2% fish gelatin, pH 7.5), membranes were incubated with primary (phospho-p38 and p38) and secondary horseradish peroxidase-conjugated antibodies as recommended by manufacturers. Membranes were then impregnated with luminol reagent and exposed to x-ray film.
# (a) Rat intestinal epithelial cells (IEC-6) were pretreated with different doses of the drug (0.1-10 μM) for 1 hr. prior to stimulation with 5 μg/ml LPS for 10 min or (b) were pretreated with semapimod (5 μM) for 1 hr. prior to stimulation with 5 μg/ml LPS or ONOO^− (50 μM) for 10 min. The protein lysates were then collected and Western blotting analysis for phospho-p38 and p38 (loading control) was performed as described in Methods. (a) A representative blot for pp38/p38 and densitometric analysis showing the ratio of pp38/p38 band intensity. Ctrl are non-stimulated cells. Results in graph bars are the mean±S.E.M. (n=3 independent experiments, *P<0.05 vs. LPS treated cells without pretreatment with semapimod, analyzed by one-way ANOVA followed by Fisher's LSD Test).
# The present inventors have previously shown that LPS causes rapid but transient activation of p38 MAP kinase as determined by increased phosphorylation of p38. […] The effect of semapimod on p38 activation by inflammatory mediators other than LPS was evaluated.
# [1] = system: formula-feeding/hypoxia-mediated intestinal injury (experimental NEC); assay: Animal model of NEC: incidence of NEC and morphologic evaluation of terminal ileum; assay type: in vivo, Sprague-Dawley rats (newborn); conditions: FFH newborn rats
# Procedure: as §1
# Newborn rats separated from their mothers were fed a conventional formula and exposed to hypoxia after administration of the drug semapimod (0.1-1 mg/kg, i.p.) as described in Methods. […] Incidence of NEC was calculated as the percentage of animals displaying pathology scores higher than 0 as assessed by histology. Results in graph bars are the mean±S.E.M. (n=15-45 animals for each group, *P<0.05 vs. FFH without semapimod, analyzed by one-way ANOVA followed by Fisher's LSD Test).
# COX-2 = assay: Western blotting of ileal mucosal scrapings, NEC model; assay type: in vivo, rat; conditions: FFH animals, 0.75 mg/kg IP daily, day 4, FIG. 5b
# Procedure: as §1, §2
# iNOS = assay: as above; assay type: in vivo, rat; conditions: FFH animals, 0.75 mg/kg IP daily, day 4, FIG. 5a
# Procedure: as §1, §2
# [2] = system: endotoxin-induced TNF release and shock; conditions: adult male Lewis rats, icv. vs intravenous; cited from earlier work
# [3] = 0.1-10 μM pretreatment 1 hr, then 5 μg/ml LPS 10 min, FIG. 6a
smiles,measurement,setting,value
C/C(=N\NC(=N)N)c1cc(NC(=O)CCCCCCCCC(=O)Nc2cc(/C(C)=N/NC(=N)N)cc(/C(C)=N/NC(=N)N)c2)cc(/C(C)=N/NC(=N)N)c1 [semapimod],HMGB1 protein expression in ileal mucosa,HMGB1,reduced after administration of semapimod
same,expression of RAGE in ileal mucosal scrapings,RAGE,expression of RAGE was reduced
same,expression of Bad protein in mucosal scrapings,Bad,significantly decreased
same,expression of Bax protein in mucosal scrapings,Bax,significantly decreased
same,phosphorylation of p38 induced by ONOO−,"p38 MAP kinase; 5 μM semapimod pretreatment 1 hr, ONOO− 50 μM 10 min, FIG. 6b",not inhibited
same,concentrations with maximal effect on LPS-induced phosphorylation of p38,p38 MAP kinase; [3],higher than 1 μM
same,phosphorylation of p38 induced by LPS,p38 MAP kinase; [3],dose dependently inhibited
same,"p38 activation by a mixture of TNFα, IL-1β and IFN-γ","p38 MAP kinase; semapimod pretreatment, cytomix 10 min (not shown)",failed to inhibit
same,severity of intestinal injury / morphology as assessed by histology,"[1]; 0.75 mg/kg i.p., day 4, FIG. 3b, 0.75 mg/kg",decrease in the severity of injury
same,doses that prevented intestinal damage (reduction in the incidence of NEC),"[1]; semapimod 0.1-1 mg/kg i.p. daily, terminal ileum day 4, FIG. 2",higher than 0.5 mg/kg
same,expression of COX-2 protein in terminal ileum,COX-2,significantly decreased
same,expression of iNOS protein in terminal ileum,iNOS,significantly decreased
same,effectiveness of icv. administration in suppressing endotoxin-induced TNF release and shock as compared with intravenous,[2],"100,000 fold"
